Tested on: HCV replicon
Test: Replicon based assay of HCV replication inhibition (NPT ELISA)
Format: cell-based, Hepatitis C virus
Conditions: Hepatitis C virus, Huh-7, 72 h, Table I; Huh-7 HCV replicon-containing cells, three days; read-out: Activity
Procedure: Compounds claimed herein are tested for the ability to inhibit viral replication of the Hepatitis C replicon in cultured cells in which the HCV replicon construct has been incorporated. The HCV replicon system was described by Bartenschlager, et. al (Science, 285, pp. 110-113 (1999)). The replicon system is predictive of in vivo anti-HCV activity; compounds that are active in humans uniformly evidence activity in the replicon assay.
In this assay HCV replicon containing cells are treated with different concentrations of the test compound to ascertain the ability of the test compound to suppress replication of the HCV replicon. As a positive control, HCV replicon-containing cells are treated with different concentrations of interferon alpha, a known inhibitor of HCV replication. The replicon assay system includes Neomycin Phosphotransferase (NPT) as a component of the replicon itself in order to detect the transcription of replicon gene products in the host cell. Cells in which the HCV replicon is actively replicating have high levels of NPT; the level of NPT is proportional to HCV replication. […] The NPT level of each sample is measured using a captured ELISA.
A protocol for testing compounds for the ability to inhibit viral replication of the Hepatitis C replicon cultured cells in which the replicon construct has been incorporated, follows.
The HCV replicon contains, 5′-3′, the HCV-IRES, the neomycin phosphotransferase (neo) gene, the IRES of encephalomyocarditis virus, which directs translation of HCV sequences NS3 to NS5B, and the 3′-NTR. The sequence of the HCV replicon has been deposited in GenBank (Accession no. AJ242652).
The replicon is transfected into Huh-7 cells using standard methods such as electroporation.
The equipment and materials include, but are not limited to, Huh-7 HCV replicon-containing cells, maintenance media (DMEM (Dulbecco's modified Eagle media) supplemented with 10% FBS, L-glutamine, non-essential amino acids, penicillin (100 units/ml), streptomycin (100 micrograms/ml), and 500 micrograms/ml of Geneticin (G418), screening media (DMEM supplemented with 10% FBS, L-glutamine, non-essential amino acids, penicillin (100 units/ml) and streptomycin (100 micrograms/ml)), 96 well tissue culture plates (flat bottom), 96 well plates (U bottom for drug dilution), Interferon alpha for positive control, fixation reagent (such as methanol: acetone), primary antibody (rabbit anti-NPTII), secondary antibody: Eu-N1l, and enhancement solution.
The cells are then seeded onto 96-well plates at a density of 6000-7500 cells/100 microliters/well (6-7.5×10^5 cells/10 ml/plate). The plates are then incubated at 37° C. in a 5% CO2 incubator.
HCV replicon-containing cells are rinsed with once PBS once; 2 mls of trypsin are then added. Cells are incubated at 37° C. in a 5% CO2 incubator for 3-5 minutes. 10 mls of complete medium is added to stop the reaction. Cells are blown gently, put into a 15 ml tube, and spun at 1200 rpm for four minutes. The trypsin/medium solution is removed and 5 mls of medium (500 ml DMEM (high glucose)) from BRL catalog #12430-054; 50 mls 10% FBS, 5% Geneticin G418 (50 mg/ml, BRL catalog #10131-035), 5 ml MEM non-essential amino acids (100×BRL #11140-050) and 5 ml pen-strep (BRL # 15140-148) is added. The cells and media are mixed carefully
Cells are plated with screening medium (500 ml DMEM (BRL #21063-029), 50 ml FBS (BRL #10082-147) and 5 ml MEM non-essential amino acid (BRL #11140-050) at 6000-7500 cells/100 μl/well of 96 well plate (6-7.5×10^5 cells/10 ml/plate). Plates are placed into 37° C. 5% CO2 incubator overnight.
The following morning, drugs (test compounds or interferon alpha) are diluted in 96 well U bottom plates with media or DMSO/media, depending on the final concentration chosen for screening. Generally for 6 concentrations of each test compounds ranging from 10 micromolar to 0.03 micromolar are applied. […]

Fc1ccc(-c2csc(Nc3ccc(Cc4ccccc4)cc3)n2)c(F)c1 [compound 41, N-(4-benzylphenyl)-4-(2,4-difluorophenyl)thiazol-2-amine] and Clc1ccc(-c2csc(Nc3ccc(Cc4ccccc4)cc3)n2)cc1 [compound 42, N-(4-benzylphenyl)-4-(4-chlorophenyl)thiazol-2-amine] cannot be ordered by EC50: greater than 10 µM for the first, greater than 10 µM for the second.

Fc1ccc(-c2csc(Nc3ccc(OC(F)(F)F)cc3)n2)cc1 [compound 43, 4-(4-fluorophenyl)-N-(4-(trifluoromethoxy)phenyl)thiazol-2-amine] and FC(F)(F)Oc1ccc(Nc2nc(-c3ccc(Cl)cc3)cs2)cc1 [compound 46, 4-(4-chlorophenyl)-N-(4-(trifluoromethoxy)phenyl)thiazol-2-amine] cannot be ordered by EC50: greater than 10 µM for the first, greater than 10 µM for the second.

FC(F)(F)Oc1ccc(Nc2nc(-c3ccc(Cl)c(Cl)c3)cs2)cc1 [compound 44, 4-(3,4-dichlorophenyl)-N-(4-(trifluoromethoxy)phenyl)thiazol-2-amine] and N#Cc1ccc(Nc2nc(-c3ccc(Cl)c(Cl)c3)cs2)cc1 [compound 52, 4-(4-(3,4-dichlorophenyl)thiazol-2-ylamino)benzonitrile] cannot be ordered by EC50: greater than 10 µM for the first, greater than 10 µM for the second.

Fc1ccc(-c2csc(Nc3ccc(OC(F)(F)F)cc3)n2)c(F)c1 [compound 45, 4-(2,4-difluorophenyl)-N-(4-(trifluoromethoxy)phenyl)thiazol-2-amine] and N#Cc1ccc(Nc2nc(-c3ccc(F)cc3F)cs2)cc1 [compound 53, 4-(4-(2,4-difluorophenyl)thiazol-2-ylamino)benzonitrile] cannot be ordered by EC50: greater than 10 µM for the first, greater than 10 µM for the second.

First: Fc1ccc(-c2csc(Nc3ccc(Cl)c(Cl)c3)n2)cc1 [compound 47, N-(3,4-dichlorophenyl)-4-(4-fluorophenyl)thiazol-2-amine]
Second: Clc1ccc(-c2csc(Nc3ccc(Cl)c(Cl)c3)n2)cc1 [compound 50, N-(3,4-dichlorophenyl)-4-(4-chlorophenyl)thiazol-2-amine]
The EC50 of the first is lower: less than 1 µM for the first, greater than 10 µM for the second. The first is the more potent here.

Clc1ccc(Nc2nc(-c3ccc(Cl)c(Cl)c3)cs2)cc1Cl [compound 48, N,4-bis(3,4-dichlorophenyl)thiazol-2-amine] and FC(F)(F)c1cc(Nc2nc(-c3ccc(Cl)c(Cl)c3)cs2)ccc1Cl [compound 60, N-(4-chloro-3-(trifluoromethyl)phenyl)-4-(3,4-dichlorophenyl)thiazol-2-amine] cannot be ordered by EC50: less than 1 µM for the first, less than 1 µM for the second.

Fc1ccc(-c2csc(Nc3ccc(Cl)c(Cl)c3)n2)c(F)c1 [compound 49, N-(3,4-dichlorophenyl)-4-(2,4-difluorophenyl)thiazol-2-amine] and Fc1ccc(-c2csc(Nc3ccc(Cl)c(C(F)(F)F)c3)n2)c(F)c1 [compound 61, N-(4-chloro-3-(trifluoromethyl)phenyl)-4-(2,4-difluorophenyl)thiazol-2-amine] cannot be ordered by EC50: less than 1 µM for the first, less than 1 µM for the second.

N#Cc1ccc(Nc2nc(-c3ccc(F)cc3)cs2)cc1 [compound 51, 4-(4-(4-fluorophenyl)thiazol-2-ylamino)benzonitrile] and N#Cc1ccc(Nc2nc(-c3ccc(Cl)cc3)cs2)cc1 [compound 54, 4-(4-(4-chlorophenyl)thiazol-2-ylamino)benzonitrile] cannot be ordered by EC50: greater than 10 µM for the first, greater than 10 µM for the second.

N#Cc1cccc(Nc2nc(-c3ccc(F)cc3)cs2)c1 [compound 55, 3-(4-(4-fluorophenyl)thiazol-2-ylamino)benzonitrile] and N#Cc1cccc(Nc2nc(-c3ccc(Cl)cc3)cs2)c1 [compound 58, 3-(4-(4-chlorophenyl)thiazol-2-ylamino)benzonitrile] cannot be ordered by EC50: greater than 10 µM for the first, greater than 10 µM for the second.

N#Cc1cccc(Nc2nc(-c3ccc(Cl)c(Cl)c3)cs2)c1 [compound 56, 3-(4-(3,4-dichlorophenyl)thiazol-2-ylamino)benzonitrile] and N#Cc1cccc(Nc2nc(-c3ccc(F)cc3F)cs2)c1 [compound 57, 3-(4-(2,4-difluorophenyl)thiazol-2-ylamino)benzonitrile] cannot be ordered by EC50: greater than 10 µM for the first, greater than 10 µM for the second.

First: Fc1ccc(-c2csc(Nc3ccc(Cl)c(C(F)(F)F)c3)n2)cc1 [compound 59, N-(4-chloro-3-(trifluoromethyl)phenyl)-4-(4-fluorophenyl)thiazol-2-amine]
Second: FC(F)(F)c1cc(Nc2nc(-c3ccc(Cl)cc3)cs2)ccc1Cl [compound 62, N-(4-chloro-3-(trifluoromethyl)phenyl)-4-(4-chlorophenyl)thiazol-2-amine]
The EC50 of the first is lower: less than 1 µM for the first, greater than 10 µM for the second.

CCCCCOc1ccc(Nc2nc(-c3ccc(F)cc3)cs2)cn1 [compound 63, N-(4-(4-fluorophenyl)thiazol-2-yl)-6-(pentyloxy)pyridin-3-amine] and CCCCCOc1ccc(Nc2nc(-c3ccc(Cl)cc3)cs2)cn1 [compound 66, N-(4-(4-chlorophenyl)thiazol-2-yl)-6-(pentyloxy)pyridin-3-amine] cannot be ordered by EC50: less than 1 µM for the first, less than 1 µM for the second.

First: CCCCCOc1ccc(Nc2nc(-c3ccc(Cl)c(Cl)c3)cs2)cn1 [compound 64, N-(4-(3,4-dichlorophenyl)thiazol-2-yl)-6-(pentyloxy)pyridin-3-amine]
Second: CCCCCOc1ccc(Nc2nc(-c3cccnc3)cs2)cn1 [compound 67, 6-(pentyloxy)-N-(4-(pyridin-3-yl)thiazol-2-yl)pyridin-3-amine]
The EC50 of the first is higher: greater than 10 µM for the first, less than 1 µM for the second. The second is the more potent here.

First: CCCCCOc1ccc(Nc2nc(-c3ccc(F)cc3F)cs2)cn1 [compound 65, N-(4-(2,4-difluorophenyl)thiazol-2-yl)-6-(pentyloxy)pyridin-3-amine]
Second: CCCCCOc1ccc(Nc2nc(-c3cccnc3)cs2)cc1F [compound 68, N-(3-fluoro-4-(pentyloxy)phenyl)-4-(pyridin-3-yl)thiazol-2-amine]
The EC50 of the first is higher: greater than 10 µM for the first, less than 1 µM for the second.

First: c1cncc(-c2csc(Nc3ccc(CN4CCCCC4)cc3)n2)c1 [compound 69, N-(4-((piperidin-1-yl)methyl)phenyl)-4-(pyridin-3-yl)thiazol-2-amine]
Second: Fc1cc(Nc2nc(-c3cccnc3)cs2)ccc1OCC1CCCCC1 [compound 71, N-(4-(cyclohexylmethoxy)-3-fluorophenyl)-4-(pyridin-3-yl)thiazol-2-amine]
The EC50 of the first is higher: greater than 10 µM for the first, less than 1 µM for the second. The second is the more potent here.

c1cc(Nc2nc(-c3cccnc3)cs2)cc(OC2Cc3ccccc3C2)c1 [compound 70, N-(3-(2,3-dihydro-1H-inden-2-yloxy)phenyl)-4-(pyridin-3-yl)thiazol-2-amine] and Fc1cc(Nc2nc(-c3cccnc3)cs2)ccc1N1CCC(c2ccccc2)CC1 [compound 72, N-(3-fluoro-4-(4-phenylpiperidin-1-yl)phenyl)-4-(pyridin-3-yl)thiazol-2-amine] cannot be ordered by EC50: less than 1 µM for the first, less than 1 µM for the second.

FC(F)(F)Oc1cccc(CNc2nc(-c3cccnc3)cs2)c1 [compound 76, N-(3-(trifluoromethoxy)benzyl)-4-(pyridin-3-yl)thiazol-2-amine] and FC(F)(F)Oc1ccc(CNc2nc(-c3cccnc3)cs2)cc1 [compound 77, N-(4-(trifluoromethoxy)benzyl)-4-(pyridin-3-yl)thiazol-2-amine] cannot be ordered by EC50: greater than 10 µM for the first, greater than 10 µM for the second.

c1ccc(-c2ccc(CNc3nc(-c4cccnc4)cs3)cc2)cc1 [compound 78, N-(4-phenyl-benzyl)-4-(pyridin-3-yl)thiazol-2-amine] and c1ccc(-c2cccc(CNc3nc(-c4cccnc4)cs3)c2)cc1 [compound 79, N-(3-phenyl-benzyl)-4-(pyridin-3-yl)thiazol-2-amine] cannot be ordered by EC50: greater than 10 µM for the first, greater than 10 µM for the second.

Work on c1ccc(Oc2ccc(CNc3nc(-c4cccnc4)cs3)cc2)cc1 [compound 80, N-(4-phenoxybenzyl)-4-(pyridin-3-yl)thiazol-2-amine] yielded an EC50 greater than 10 µM.

From US8088806B2 (Achillion Pharmaceuticals, Inc., priority 2005, dated 2012)
